SMILES strings stand for the structures.

Holding throughout (type): in vivo
Test [1] is described as follows: Whole blood glucose after ingesting 100 g of carbohydrates, glucose oxidase reaction. Here is the method:
(§1) 1.5 g of phlorizin as a dry powder in a gelatin capsule was ingested one hour prior to ingesting 100 g of carbohydrates and compared to similar ingestion of carbohydrates without the prior consumption of the phlorizin. Glucose and insulin levels were measured just prior to and 30 and 60 minutes following carbohydrate ingestion and glucose levels were also measured 90 and 120 minutes after carbohydrate ingestion. Glucose levels were established by glucose oxidase reaction using whole blood and measuring the color generated with a hand-held spectrophotometer. Serum insulin was measured using commercially available immunoassay devices and methods.

Test [2] in a line: Serum insulin after ingesting 100 g of carbohydrates, immunoassay. The conditions noted are these: 1.5 g oral one hour prior to 100 g of carbohydrates. The protocol: as §1
Test [3] can be described thus: Body weight during oral phlorizin three times a day on an empty stomach. The conditions noted are these: for Weight after 3 days of phlorizin: 1.5 grams oral three times a day, 90 minutes before eating. The protocol:
1.5 grams phlorizin as a dry powder in a gelatin capsule was ingested orally three times a day, 90 minutes before eating on an empty stomach. Weight measured at the same time each day with a digital electronic scale. Normal dietary conditions were maintained during the time that the phlorizin was ingested.

Test [4] can be described thus: Urine glucose after oral ingestion of phlorizin, no food versus in milk. The conditions noted are these: 1 gm oral; for urine glucose: 85 kg male.

For the compound `O=C(CCc1ccc(O)cc1)c1c(O)cc(O)cc1O[C@@H]1O[C@H](CO)[C@@H](O)[C@H](O)[C@H]1O` [phlorizin], the GLUCOSE in test [1] (1.5 g oral one hour prior to 100 g of carbohydrates, 0 minutes (just prior to carbohydrate ingestion)) is 90 mg/dL; in test [1] (1.5 g oral one hour prior to 100 g of carbohydrates, 30 minutes after carbohydrate ingestion), 146 mg/dL; in test [1] (1.5 g oral one hour prior to 100 g of carbohydrates, 60 minutes after carbohydrate ingestion), 144 mg/dL; in test [1] (1.5 g oral one hour prior to 100 g of carbohydrates, 90 minutes after carbohydrate ingestion), 108 mg/dL; in test [1] (1.5 g oral one hour prior to 100 g of carbohydrates, 120 minutes after carbohydrate ingestion), 117 mg/dL. For the same compound, the “effect on postprandial rise in glucose and insulin levels” value in test [1] (1.5 g oral one hour prior to 100 g of carbohydrates, conclusion in words) is “able to decrease the postpandrial rise in glucose and insulin levels”. Also, the “prevention of reactive hypoglycemia” value in test [1] (glucose levels at 90 and 120 minutes with and without phlorizin, conclusion in words) was “effective in preventing reactive hypoglycemia”. For the same compound, the INSULIN was found to be 5 microIU/ml in test [2] (0 minutes (just prior to carbohydrate ingestion)), 34 microIU/ml in test [2] (30 minutes after carbohydrate ingestion) and 28 microIU/ml in test [2] (60 minutes after carbohydrate ingestion). For the same compound, the “effect on body weight” value in test [3] (1.5 grams oral three times a day for 3 days, conclusion in words) is reported as “effective in reducing body weight”. The “Weight after 3 days of phlorizin” value in test [3] (Experiment 1, pre-phlorizin weight 192.2 lbs.) came out at 189.4 lbs; in test [3] (Experiment 2, pre-phlorizin weight 193.2 lbs.), 185.4 lbs; in test [3] (Experiment 3, pre-phlorizin weight 191.5 lbs.), 186.8 lbs; in test [3] (Experiment 4, pre-phlorizin weight 194.4 lbs.) it was 189.0 lbs. The urine glucose result in test [4] (in milk, 0 minutes after ingestion) was “no food: <50 mg/dl in milk: <50 mg/dl”; in test [4] (in milk, 90 minutes after ingestion), under 50 mg/dL; in test [4] (in milk, 150 minutes after ingestion), “no food: 50 mg/dl in milk: <50 mg/dl”; in test [4] (in milk, 210 minutes after ingestion), “no food: <50 mg/dl in milk: <50 mg/dl”; in test [4] (no food (empty stomach), 0 minutes after ingestion), “no food: <50 mg/dl in milk: <50 mg/dl”; in test [4] (no food (empty stomach), 90 minutes after ingestion) it was 500 mg/dL. Moreover, the urine glucose entry in test [4] (no food (empty stomach), 150 minutes after ingestion) is “no food: 50 mg/dl in milk: <50 mg/dl”; in test [4] (no food (empty stomach), 210 minutes after ingestion) it was “no food: <50 mg/dl in milk: <50 mg/dl”. Further, the “effectiveness as a glucose blocker (urine glucose)” value in test [4] (no food versus in milk, conclusion in words) is “effective as a glucose blocker only if it is ingested without food on an empty stomach”.

(Values after US6448232B1, “Method of using dihydrochalcone derivatives to block glucose transfer” (priority 1999, dated 2002).)
